Results taken from patent US7951829B2, “Benzimidazole modulators of VR1” (Janssen Pharmaceutica NV, priority 2006, dated 2011).

Molecular target: T1, hVR1 (Homo sapiens, UniProt Q8NER1)
T1 construct: expressed in transfected cells; host or cells: HEK293
Test: Human VR1 (hVR1) Functional Assay (FLIPR intracellular calcium, capsaicin challenge)
Assay type: cell-based
Details: capsaicin 0.030 μM, HEK293 cells expressing hVR1; for inhibition at 1 µM: test concentration 1 μM

T1 sequence (Q8NER1 whole entry): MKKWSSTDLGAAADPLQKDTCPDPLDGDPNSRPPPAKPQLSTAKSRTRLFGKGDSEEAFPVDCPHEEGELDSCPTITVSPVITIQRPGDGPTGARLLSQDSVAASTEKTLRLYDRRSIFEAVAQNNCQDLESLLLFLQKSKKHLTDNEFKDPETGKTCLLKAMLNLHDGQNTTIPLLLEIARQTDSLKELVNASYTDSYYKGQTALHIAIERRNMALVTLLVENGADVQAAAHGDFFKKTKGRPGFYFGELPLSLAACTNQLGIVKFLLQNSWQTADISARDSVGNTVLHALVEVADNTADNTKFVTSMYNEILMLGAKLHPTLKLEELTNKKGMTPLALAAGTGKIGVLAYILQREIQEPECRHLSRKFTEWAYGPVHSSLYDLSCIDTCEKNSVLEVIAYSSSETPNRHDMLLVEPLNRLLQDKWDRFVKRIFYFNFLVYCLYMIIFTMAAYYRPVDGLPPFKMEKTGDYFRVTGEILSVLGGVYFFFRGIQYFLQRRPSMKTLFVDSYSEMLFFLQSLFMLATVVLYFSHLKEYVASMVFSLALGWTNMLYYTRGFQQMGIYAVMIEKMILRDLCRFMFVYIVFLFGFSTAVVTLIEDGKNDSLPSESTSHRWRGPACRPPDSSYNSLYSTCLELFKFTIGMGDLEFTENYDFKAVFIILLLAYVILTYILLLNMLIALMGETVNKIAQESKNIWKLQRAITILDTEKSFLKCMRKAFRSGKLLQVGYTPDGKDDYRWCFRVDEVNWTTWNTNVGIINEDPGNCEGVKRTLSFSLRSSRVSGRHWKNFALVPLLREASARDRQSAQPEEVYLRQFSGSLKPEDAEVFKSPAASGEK

SMILES	IC50	inhibition at 1 µM
NS(=O)(=O)c1ccccc1-c1ccc2[nH]c([C@@H]3C[C@H]3c3ccc(C(F)(F)F)cc3)nc2c1 [Cpd 502, 2-{2-[(1R,2R)-2-(4-trifluoromethyl-phenyl)-cyclopropyl]-1H-benzimidazol-5-yl}-benzenesulfonamide]	190 nM	82%
CS(=O)(=O)c1ccc(CCc2nc3cc(-c4ccccc4S(N)(=O)=O)ccc3[nH]2)cc1 [Cpd 145, 2-{2-[2-(4-methanesulfonyl-phenyl)-ethyl]-1H-benzimidazol-5-yl}-benzenesulfonamide]		19%
NC(=O)c1ccccc1-c1ccc2[nH]c(/C=C/c3ccc(OC(F)(F)F)cc3)nc2c1 [Cpd 19, (E)-2-{2-[2-(4-trifluoromethoxy-phenyl)-vinyl]-1H-benzimidazol-5-yl}-benzamide]		32%
CC(O)c1ccccc1-c1ccc2[nH]c(/C=C/c3ccc(C(F)(F)F)cc3)nc2c1 (stereo not drawn) [Cpd 16, (E)-1-(2-{2-[2-(4-trifluoromethyl-phenyl)-vinyl]-1H-benzimidazol-5-yl}-phenyl)-ethanol]	45 nM	100%
NS(=O)(=O)NCc1ccccc1-c1ccc2[nH]c(/C=C/c3ccc(C(F)(F)F)cc3)nc2c1 [Cpd 491, (E)-5-(2-aminosulfonylamino-methylphenyl)-2-[2-(4-trifluoromethyl-phenyl)-vinyl]-1H-benzimidazole]	77 nM	
CC(=O)c1ccccc1-c1ccc2[nH]c(/C=C/c3ccc(OC(F)(F)F)cc3)nc2c1 [Cpd 20, (E)-1-(2-{2-[2-(4-trifluoromethoxy-phenyl)-vinyl]-1H-benzimidazol-5-yl}-phenyl)-ethanone]	320 nM	
CC(O)c1ccccc1-c1ccc2[nH]c(CCc3ccc(S(=O)(=O)C(F)(F)F)cc3)nc2c1 (stereo not drawn) [Cpd 46, 1-(2-{2-[2-(4-trifluoromethanesulfonyl-phenyl)-ethyl]-1H-benzimidazol-5-yl}-phenyl)-ethanol]	46 nM	100%
CC(C)(O)c1ccccc1-c1ccc2[nH]c([C@H]3C[C@@H]3c3ccc(C(F)(F)F)cc3)nc2c1 [Cpd 503, 2-(2-{2-[(1S,2S)-2-(4-trifluoromethyl-phenyl)-cyclopropyl]-1H-benzimidazol-5-yl}-phenyl)-propan-2-ol]	10 nM	93%
CS(=O)(=O)c1ccc(/C=C/c2nc3cc(-c4ccccc4S(N)(=O)=O)ccc3[nH]2)cc1 [Cpd 85, (E)-2-{2-[2-(4-methanesulfonyl-phenyl)-vinyl]-1H-benzimidazol-5-yl}-benzenesulfonamide]		16%
CNS(=O)(=O)c1ccccc1-c1ccc2[nH]c(/C=C/c3ccc(F)c(F)c3)nc2c1 [Cpd 329, (E)-2-{2-[2-(3,4-difluoro-phenyl)-vinyl]-1H-benzimidazol-5-yl}-N-methyl-benzenesulfonamide]	27 nM	98%
O=S(=O)(c1ccc(/C=C/c2nc3cc(-c4ccccc4O)ccc3[nH]2)cc1)C(F)(F)F [Cpd 41, (E)-2-{2-[2-(4-trifluoromethanesulfonyl-phenyl)-vinyl]-1H-benzimidazol-5-yl}-phenol]	280 nM	90%
CNS(=O)(=O)c1ccccc1-c1ccc2[nH]c(/C=C/c3c(F)cccc3F)nc2c1 [Cpd 327, (E)-2-{2-[2-(2,6-difluoro-phenyl)-vinyl]-1H-benzimidazol-5-yl}-N-methyl-benzenesulfonamide]	343 nM	77%
NC(=O)c1ccccc1-c1ccc2[nH]c(/C=C/c3ccc(F)c(F)c3)nc2c1 [Cpd 26, (E)-2-{2-[2-(3,4-difluoro-phenyl)-vinyl]-1H-benzimidazol-5-yl}-benzamide]		6%
CNS(=O)(=O)c1ccccc1-c1ccc2[nH]c(/C=C/c3ccccc3Br)nc2c1 [Cpd 348, (E)-2-{2-[2-(2-bromo-phenyl)-vinyl]-1H-benzimidazol-5-yl}-N-methyl-benzenesulfonamide]	162 nM	86%
CS(=O)(=O)Nc1ccccc1-c1ccc2[nH]c(/C=C/c3ccc(OCC(F)(F)F)cc3)nc2c1 [Cpd 95, (E)-N-[2-(2-{2-[4-(2,2,2-trifluoro-ethoxy)-phenyl]-vinyl}-1H-benzimidazol-5-yl)-phenyl]-methanesulfonamide]	301 nM	81%
COC(=O)Nc1ccccc1-c1ccc2[nH]c(/C=C/c3ccc(C(F)(F)F)cc3)nc2c1 [Cpd 462, (E)-(2-{2-[2-(4-trifluoromethyl-phenyl)-vinyl]-1H-benzimidazol-5-yl}-phenyl)-carbamic acid methyl ester]	97 nM	98%
CS(=O)(=O)Nc1ccccc1-c1ccc2[nH]c(/C=C/c3ccc(F)c(Cl)c3)nc2c1 [Cpd 408, (E)-N-(2-{2-[2-(3-chloro-4-fluoro-phenyl)-vinyl]-1H-benzimidazol-5-yl}-phenyl)-methanesulfonamide]		64%
OCc1ccccc1-c1ccc2[nH]c(/C=C/c3ccc(SC(F)(F)F)cc3)nc2c1 [Cpd 35, (E)-(2-{2-[2-(4-trifluoromethylsulfanyl-phenyl)-vinyl]-1H-benzimidazol-5-yl}-phenyl)-methanol]	41 nM	100%

SMILES	IC50	inhibition at 1 µM
CC(C)c1ccc(/C=C/c2nc3cc(-c4ccccc4S(N)(=O)=O)ccc3[nH]2)cc1 [Cpd 429, (E)-2-{2-[2-(4-isopropyl-phenyl)-vinyl]-1H-benzimidazol-5-yl}-benzenesulfonamide]	6 nM	98%
NS(=O)(=O)c1ccccc1-c1ccc2[nH]c(/C=C/c3cc(F)cc(F)c3)nc2c1 [Cpd 361, (E)-2-{2-[2-(3,5-difluoro-phenyl)-vinyl]-1H-benzimidazol-5-yl}-benzenesulfonamide]	27 nM	97%
Oc1ccccc1-c1ccc2[nH]c(C3CC3c3ccc(C(F)(F)F)cc3)nc2c1 (stereo not drawn) [Cpd 472, 2-{2-[2-(4-trifluoromethyl-phenyl)-cyclopropyl]-1H-benzimidazol-5-yl}-phenol]	> 500 nM	
NS(=O)(=O)c1ccccc1-c1ccc2[nH]c(/C=C/c3ccc(F)c(F)c3)nc2c1 [Cpd 358, (E)-2-{2-[2-(3,4-difluoro-phenyl)-vinyl]-1H-benzimidazol-5-yl}-benzenesulfonamide]	9 nM	99%
CC(C)(C)OC(=O)Nc1ccccc1-c1ccc2[nH]c(/C=C/c3ccc(C(C)(C)C)cc3)nc2c1 [Cpd 10, (E)-(2-{2-[2-(4-tert-butyl-phenyl)-vinyl]-1H-benzimidazol-5-yl}-phenyl)-carbamic acid tert-butyl ester]	280 nM	94%
CS(=O)(=O)Nc1ccccc1-c1ccc2[nH]c(/C=C/c3ccc(Br)cc3)nc2c1 [Cpd 406, (E)-N-(2-{2-[2-(4-bromo-phenyl)-vinyl]-1H-benzimidazol-5-yl}-phenyl)-methanesulfonamide]	170 nM	97%
CS(=O)(=O)Nc1ccccc1-c1ccc2[nH]c(/C=C/c3ccc(F)c(F)c3)nc2c1 [Cpd 28, (E)-N-(2-{2-[2-(3,4-difluoro-phenyl)-vinyl]-1H-benzimidazol-5-yl}-phenyl)-methanesulfonamide]	250 nM	96%
CC(C)(O)c1ccccc1-c1ccc2[nH]c(C3CC3c3cccc(C(F)(F)F)c3)nc2c1 (stereo not drawn) [Cpd 234, 2-(2-{2-[2-(3-trifluoromethyl-phenyl)-cyclopropyl]-1H-benzimidazol-5-yl}-phenyl)-propan-2-ol]		7%
NS(=O)(=O)c1ccccc1-c1ccc2[nH]c(/C=C/c3ccc(C(F)F)cc3)nc2c1 [Cpd 435, (E)-2-{2-[2-(4-difluoromethyl-phenyl)-vinyl]-1H-benzimidazol-5-yl}-benzenesulfonamide]	20 nM	97%
NS(=O)(=O)c1ccccc1-c1ccc2[nH]c(/C=C/c3ccc(Cl)cc3Cl)nc2c1 [Cpd 437, (E)-2-{2-[2-(2,4-dichloro-phenyl)-vinyl]-1H-benzimidazol-5-yl}-benzenesulfonamide]	24 nM	97%
NS(=O)(=O)c1ccccc1-c1ccc2[nH]c(/C=C/c3ccc4ccccc4c3)nc2c1 [Cpd 433, (E)-2-[2-(2-naphthalen-2-yl-vinyl)-1H-benzimidazol-5-yl]-benzenesulfonamide]	10 nM	98%
CC(C)(O)c1ccccc1-c1ccc2[nH]c(C3CC3c3ccc(OC(F)(F)F)cc3)nc2c1 (stereo not drawn) [Cpd 497, 2-(2-{2-[2-(4-trifluoromethoxy-phenyl)-cyclopropyl]-1H-benzimidazol-5-yl}-phenyl)-propan-2-ol]	39 nM	94%
NS(=O)(=O)c1ccccc1-c1ccc2[nH]c(/C=C/c3cc(F)c(F)cc3F)nc2c1 [Cpd 371, (E)-2-{2-[2-(2,4,5-trifluoro-phenyl)-vinyl]-1H-benzimidazol-5-yl}-benzenesulfonamide]	18 nM	98%
NS(=O)(=O)c1ccccc1-c1ccc2[nH]c(CCc3cccc(C(F)(F)F)c3)nc2c1 [Cpd 175, 2-{2-[2-(3-trifluoromethyl-phenyl)-ethyl]-1H-benzimidazol-5-yl}-benzenesulfonamide]	16 nM	100%
CS(=O)(=O)Nc1ccccc1-c1ccc2[nH]c(/C=C/c3ccc(C(F)(F)F)cc3F)nc2c1 [Cpd 418, (E)-N-(2-{2-[2-(2-fluoro-4-trifluoromethyl-phenyl)-vinyl]-1H-benzimidazol-5-yl}-phenyl)-methanesulfonamide]	18 nM	100%
CC(=O)c1ccccc1-c1cc2nc(/C=C/c3ccc(C(F)(F)F)cc3)[nH]c2cc1F [Cpd 62, (E)-1-(2-{6-fluoro-2-[2-(4-trifluoromethyl-phenyl)-vinyl]-1H-benzimidazol-5-yl}-phenyl)-ethanone]	200 nM	100%
CNS(=O)(=O)c1ccccc1-c1ccc2[nH]c(/C=C/c3cccc(F)c3F)nc2c1 [Cpd 325, (E)-2-{2-[2-(2,3-difluoro-phenyl)-vinyl]-1H-benzimidazol-5-yl}-N-methyl-benzenesulfonamide]		73%
